Experimental data published in paper PMC8037814, “Polymorphic Characterization, Pharmacokinetics, and Anti-Inflammatory Activity of Ginsenoside Compound K Polymorphs” (Molecules, 2021).
Where “and” joins values, the source holds several entries; their conditions need not be identical. Identical values can stand only once.

Legend:
[1] = DSC thermal analysis of CK polymorphs; assay type: physicochemical; settings: 20 K/min from 20 to 400 °C, dry nitrogen flow
Experimental: DSC measurements were performed on a DSC204 Phoenix calorimeter (NETZSCH, Selb, Germany) with a heating rate of 20 K/min from 20 to 400 °C. The dry nitrogen flow was about 50 mL/min. Data were analyzed using NETZSCH analysis software.

[2] = Pharmacokinetics after oral administration of CK polymorphs in rats (20 mg/kg); assay type: in vivo, Sprague-Dawley rats; settings: for Fabs (absolute bioavailability): p.o. 20 mg/kg vs i.v. 10 mg/kg, dose-adjusted AUC ratio
[3] = tested on: carrageenan-induced acute paw inflammation; assay: Paw swelling test induced by carrageenan in rats; assay type: in vivo, Sprague-Dawley rats; parameters: paw volume: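 right hind paw volume measured with a plethysmometer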; settings: for paw volume / paw edema: mean±SD of 6 rats; for edema inhibition: versus model group
Experimental: Rats were divided into 11 groups of six animals each (sex in half): the normal group, the model group, indomethacin group (1 mg/kg), and form I, II, III, IV groups (each form set 10 mg/kg and 20 mg/kg groups, respectively). Indomethacin and CK were ground and suspended in 0.5% CMC-Na solution. […] The same volume of saline was injected into the normal group. […] Paw edema and inhibitory rate were calculated as the following formula, and the differences among groups were compared with the t-test. Paw edema (%) = (Vn − V0)/V0 × 100%. Vn: paw volume at different time intervals after carrageenan injection. V0: paw volume before carrageenan injection. Inhibitory rate (%) = (Em − Ee)/Em × 100%. Em: paw edema of the model group. Ee: paw edema of the experimental group.

[4] = Pharmacokinetics after oral administration of CK polymorphs in rats (20 mg/kg); assay type: in vivo, Sprague-Dawley rats; settings: p.o. 20 mg/kg, individual rats 1-3
Experimental: All samples were analyzed with a triple quadrupole LC-MS/MS (API 4000 LC-MS/MS, AB Sciex, Framingham, MA, USA) coupled with an Agilent 1200 HPLC system (Agilent Technologies, Palo Alto, CA, USA). The MS was equipped with an electrospray system (ESI). The N2 gas temperature and ion-spray voltage were set to 550 °C and 4.5 kV, respectively. CK was measured in multiple reaction monitoring (MRM) mode using a negative electrospray ionization source at m/z 667.4 → 621.2 for CK (CID 25.6 v) and m/z 271.2 → 228.8 for internal standard (IS, (E)-5-(4-fluorostyryl)-2-isopropylbenzene-1,3-diol, Welichem Biotech Inc., Wayburne Drive Burnaby, BC, Canada) (CID 28.3 v) with a dwell time of 0.1 s.
Rats were divided randomly into 5 groups of six animals each (sex in half) and given 7 days to acclimatize to the facility before the experiments began. The four forms of CK were suspended in 0.5% sodium carboxymethyl cellulose (CMC-Na) solution and orally administered to rats at a dose of 20 mg/kg. A CK solution in a mixed solvent of dimethyl sulfoxide (DMSO)/castor oil/physiologic saline (3:5:92, v/v) was intravenously administered to the remaining group via the tail vein at a dose of 10 mg/kg. Blood samples were collected by retro-orbital puncture at the following times: 0.167, 0.333, 0.667, 1, 2, 3, 4, 6, 9, 12, and 24 h for the oral administration, and at 0.0083, 0.05, 0.133, 0.25, 0.5, 1, 2, 4, 6, and 9 h for the intravenous administration. Plasma samples were obtained by centrifuging a heparinized blood tube at 4000 rpm for 5 min and then stored at −70 °C until analysis.
The procedure for drug extraction from plasma samples was as follows: 0.2 mL acetonitrile, 0.2 mL plasma sample, and 10 μL IS (1 µg/mL) were added into a 1.5 mL Eppendorf-type tube. This mixture was vortexed for 1 min and then treated with 0.8 mL of methyl tert-butyl ether (MTBE) to precipitate the plasma proteins. After a mechanical vortex for 1 min and subsequent centrifugation (4000 rpm, 5 min), 0.8 mL of the supernatant was transferred and blow-dried with N2 at 40 °C in a water bath. Finally, the residue was dissolved in 120 μL of mobile phase, and then 10 μL was subjected to HPLC for analysis. […] Intra- and inter-day precision and accuracy never exceeded 15% by analyzing six replicate samples.
The CK pharmacokinetic parameters in rats, including the area under the curve (AUC(0–t) and AUC(0–∞)), mean residence time (MRT(0–t) and MRT(0–∞)), maximum concentration (Cmax), time to maximum concentration (Tmax), half-life (t1/2), apparent distribution volume (V), and total plasma clearance (CL), were derived from plasma concentration-time curves by using non-compartmental analysis (NCA) with DAS 2.0 software (Drug And Statistics, Mathematical Pharmacology Professional Committee of China, Shanghai, China). The absolute bioavailability (Fabs) was calculated from the dose-adjusted ratio of AUCp.o. to AUCi.v.. One-way analysis of variance (ANOVA) by SPSS 11.5 (SPSS Inc., Chicago, IL, USA) was conducted to compare the primary PK parameters.

[5] = female rats, p.o. 20 mg/kg, mean ± SD (n = 3), 20 mg/kg
[6] = male rats, p.o. 20 mg/kg, mean ± SD (n = 3), 20 mg/kg
[7] = 10 mg/kg p.o. qd 3 days, 3h after carrageenan, listed as From II
[8] = 10 mg/kg p.o. qd 3 days, 4h after carrageenan, listed as From II
[9] = 10 mg/kg p.o. qd 3 days, 5h after carrageenan, listed as From II
[10] = 10 mg/kg p.o. qd 3 days, 6h after carrageenan, listed as From II
[11] = 20 mg/kg p.o. qd 3 days, 3h after carrageenan, listed as From II
[12] = 20 mg/kg p.o. qd 3 days, 4h after carrageenan
[13] = 20 mg/kg p.o. qd 3 days, 4h after carrageenan, listed as From II
[14] = 20 mg/kg p.o. qd 3 days, 5h after carrageenan, listed as From II
[15] = 20 mg/kg p.o. qd 3 days, 6h after carrageenan, listed as From II

CC(C)=CCCC(C)(OC1OC(CO)C(O)C(O)C1O)C1CCC2(C)C1C(O)CC1C3(C)CCC(O)C(C)(C)C3CCC12C [Form II, 20-O-β-D-glucopyranosyl-20(S)-protopanaxadiol]
DSC onset of the decomposition endotherm (thermodynamical stability) [1]: 263.1 °C | maximum differences of the average Cmax and AUC(0–∞) values, form II compared to form IV ([2]; female groups, p.o. 20 mg/kg): 2.1 fold | Fabs (absolute bioavailability) ([2]; female rats): 7.87% | t1/2z ([2]; female rats, p.o. 20 mg/kg, individual rats 1-3, 20 mg/kg): 3.96 h and 2.99 h and 2.49 h | AUC(0–t) [2, 5]: 2447.2 ± 1828.5 ng·h/mL | AUC(0–∞) [2, 5]: 2551.23 ± 1967.99 ng·h/mL and 2551.2 ± 1968.0 ng·h/mL | CLz/F [2, 5]: 180 ± 96.5 mL/min/kg | Cmax [2, 5]: 459.59 ± 289.63 ng/mL and 459.6 ± 289.6 ng/mL | Vz/F [2, 5]: 45.3 ± 20.0 L/kg | t1/2z [2, 5]: 3.15 ± 0.75 h and 3.2 ± 0.75 h | AUC(0-t) ([2]; female, Sprague-Dawley, rat, plasma, po, 20 mg/kg, female rats, p.o. 20 mg/kg, mean ± SD (n = 3)): 2450 ± 1830 ng·h/mL | CL/F ([2]; female, Sprague-Dawley, rat, plasma, po, 20 mg/kg, female rats, p.o. 20 mg/kg, mean ± SD (n = 3), read-out: CLz/F (converted)): 180 mL/min/kg | maximum differences of the average Cmax and AUC(0–∞) values, form II compared to form IV ([2]; male groups, p.o. 20 mg/kg): 1.6 fold | Fabs (absolute bioavailability) ([2]; male rats): 4.07% | Vz/F ([2]; male rats, p.o. 20 mg/kg, individual rats 1-3, 20 mg/kg): 102.18 L/kg and 80.31 L/kg and 39.93 L/kg | AUC(0–t) [2, 6]: 1191.06 ± 471.90 ng·h/mL and 1191.1 ± 471.90 ng·h/mL | AUC(0–∞) [2, 6]: 1235.2 ± 474.45 ng·h/mL | CLz/F [2, 6]: 299.5 ± 118 mL/min/kg and 300 ± 118 mL/min/kg | Cmax [2, 6]: 232.33 ± 68.97 ng/mL and 232.3 ± 68.97 ng/mL | Vz/F [2, 6]: 74.14 ± 31.58 L/kg and 74.1 ± 31.6 L/kg | t1/2z [2, 6]: 2.93 ± 1.14 h and 2.9 ± 1.1 h | AUC(0-inf) ([2]; male, Sprague-Dawley, rat, plasma, po, 20 mg/kg, male rats, p.o. 20 mg/kg, mean ± SD (n = 3)): 1240 ± 474 ng·h/mL | paw volume ([3]; 10 mg/kg p.o. qd 3 days, 0h (before carrageenan), listed as From II): 1.57±0.12 | paw edema [3, 7]: 55.25±18.20% | paw volume [3, 7]: 2.41±0.16 | edema inhibition [3, 7]: 14.03% | paw edema [3, 8]: 47.34±11.94% | paw volume [3, 8]: 2.30±0.14 | edema inhibition [3, 8]: 24.09% | paw edema [3, 9]: 33.73±13.72% | paw volume [3, 9]: 2.08±0.12 | edema inhibition [3, 9]: 34.84% | paw edema [3, 10]: 27.25±10.94% | paw volume [3, 10]: 1.98±0.08 | edema inhibition [3, 10]: 30.70% | paw volume ([3]; 20 mg/kg p.o. qd 3 days, 0h (before carrageenan), listed as From II): 1.65±0.14 | paw edema [3, 11]: 45.81±8.11% | paw volume [3, 11]: 2.40±0.15 | edema inhibition [3, 11]: 28.72% | paw edema [3, 12]: 39.7 ± 6.4% | paw edema [3, 13]: 39.71±6.48% | paw volume [3, 13]: 2.30±0.14 | edema inhibition [3, 12]: 36.3% | edema inhibition [3, 13]: 36.33% | paw edema [3, 14]: 29.62±8.06% | paw volume [3, 14]: 2.13±0.15 | edema inhibition ([3]; 20 mg/kg p.o. qd 3 days, 5h after carrageenan): 42.7% | edema inhibition [3, 14]: 42.77% | paw edema [3, 15]: 23.59±8.59% | paw volume [3, 15]: 2.03±0.14 | edema inhibition ([3]; 20 mg/kg p.o. qd 3 days, 6h after carrageenan): 40.0% | edema inhibition [3, 15]: 40.00% | AUC(0-t) ([4]; female rats): 4557.73 ng·h/mL and 1338.42 ng·h/mL and 1445.59 ng·h/mL | AUC(0-∞) ([4]; female rats): 4823.11 ng·h/mL and 1371.40 ng·h/mL and 1459.17 ng·h/mL | CLz/F ([4]; female rats): 69.2 mL/min/kg and 243 mL/min/kg and 228.5 mL/min/kg | Cmax ([4]; female rats): 777.00 ng/mL and 209.65 ng/mL and 392.12 ng/mL | Vz/F ([4]; female rats): 23.70 L/kg and 62.95 L/kg and 49.26 L/kg | AUC(0-t) ([4]; male rats): 1095.34 ng·h/mL and 774.36 ng·h/mL and 1703.47 ng·h/mL | AUC(0-∞) ([4]; male rats): 1198.51 ng·h/mL and 780.14 ng·h/mL and 1726.92 ng·h/mL | CLz/F ([4]; male rats): 278.2 mL/min/kg and 427.3 mL/min/kg and 193 mL/min/kg | Cmax ([4]; male rats): 187.99 ng/mL and 197.22 ng/mL and 311.79 ng/mL | t1/2z ([4]; male rats): 2.17 h and 2.39 h and 4.24 h
